Data on one compound can be found in patent US8912184B1, “Therapeutic and diagnostic methods” (Alzheimer's Institute of America, Inc., priority 2010, dated 2014).

Like-named read-outs stand apart in the source and are kept apart here.

One assay concerns HCT116 cells. In words: ATP measured in cellular lysates (ATP depletion) of HCT116 cells. The class given is cell-based. The settings on record: Homo sapiens, read-out: potency (IC50) for ATP depletion. As for the experimental part: NAD in cells was measured by modification of existing protocols (Lee, H. I., et al. Exp. Mol. Med. 40, 246-253 (2008)). MCF-10A cells stably transduced with the PIK3CA(H1047R) oncogene were seeded in 96 well plates at very high density (100% confluence) and allowed to settle overnight. Test compound dissolved in DMSO was added and drug incubation proceeded for 20-24 hours. Cells were washed with PBS and harvested by incubation in 25 μL 0.5 M perchloric acid (HClO4) followed by vigorous shaking at 4° C. for 15 minutes. Acidic cell lysates were neutralized by adding 8 μL of 2 M KOH/0.2 M K2HPO4. The entire lysate volume was transferred to a centrifuge plate and spun at 3000 rpm in a table top centrifuge (4° C.) for 5 minutes to clear the precipitate. […] Reactions were allowed to proceed for 1 hour at room temperature, after which time fluorescence was read on a Gemini plate reader as described above.
For ATP measurement, 5 μL of cleared lysate was added to 195 μL PBS. 50 μL CellTiter-Glo reagent (Promega Corporation, Madison, Wis.) was added and ATP measured as described in the cytotoxicity assay methods.
Kinetics of NAD and ATP depletion in Naprt1-proficient HCT116 cells induced by Exemplary Compound A was studied using the assays described above. HCT116 cells were treated with 8.5 nM Exemplary Compound A and cellular NAD and ATP were measured at various times. […]

The next assay has as its system HCT116 xenograft tumors. In words: NAD levels in tumor lysates of HCT116 xenograft mice. The class given is in vivo. The settings on record: single oral dose on day 0, after two days. As for the experimental part:
Exemplary Compound A was tested for its ability to deplete NAD levels and promote tumor regression in an HCT116 (i.e., a Naprt-proficient cancer) murine xenograft model. Three million HCT116 human colon carcinoma cells were injected subcutaneously into nu/nu mice to form tumors. Dosing was started ten days later when median tumor volume was >100 mm^3.
Exemplary Compound A was administered orally once on day 0 (arrow) to HCT116 tumor-bearing xenograft mice and NAD levels were determined for tumor lysates every other day for 8 days.

Assay [1] has as its system MIAPaCa-2 xenograft tumors. Briefly: MIAPaCa-2 human pancreatic carcinoma murine xenograft, tumor growth and survival. The assay is classed as in vivo, mice. The settings on record: for animals having tumor volumes >1500 mm3 at end of study: Day 40. As for the experimental part:
Exemplary Compound A was tested for its ability to suppress tumor growth, and promote survival in MIAPaCa-2 human pancreatic carcinoma (i.e., a Naprt-deficient cancer) murine xenograft models (FIG. 9). In these experiments, MIAPaCa-2 tumor-bearing mice with a median tumor volume of 202 mm^3 were orally dosed on days 1, 10 and 19 with either vehicle, 75 mg/kg Exemplary Compound A or 200 mg/kg Exemplary Compound A in combination with 400 mg/kg NA, or were orally dosed daily with 400 mg/kg NA for 21 days. See key below FIG. 9(b). NA was always administered one hour prior to dosing with Exemplary Compound A or vehicle.

What is called IC50 is the concentration at which inhibition is half-maximal. Regarding `O=C(NCc1cccnc1)Nc1ccc(COc2ccccc2-c2ccccc2)cc1` [Exemplary Compound A, 1-{4-[(biphenyl-2-yloxy)methyl]phenyl}-3-(pyridin-3-ylmethyl)urea], the IC50 in the assay with HCT116 cells (HCT-116, 0.5 h, exposure 30 min) was 33 nM; in the assay on HCT116 cells (HCT-116, after 48 h exposure), ~0.6 nM. Moreover, in the assay on HCT116 xenograft tumors, the “depletion of NAD in tumor lysates” value is on record as 94%. In addition, the survival entry in assay [1] (200 mg/kg with 400 mg/kg NA) is reported as “significantly increased survival”. Moreover, the “animals having tumor volumes >1500 mm3 at end of study” value in assay [1] (200 mg/kg with 400 mg/kg NA) is “two”; in assay [1] (other cohorts (incl. 75 mg/kg)), “eight”. The “tumor growth inhibition (TGI) relative to vehicle” value in assay [1] (oral 75 mg/kg days 1, 10, 19, day 19) is on record as 53%. Further, the “tumor growth inhibition (TGI)” value in assay [1] (oral 200 mg/kg with 400 mg/kg NA days 1, 10, 19, day 19) is given as 88%.
